# Columns and labels:
# OATP1B1 = target: T1, OATP1B1 (Homo sapiens, UniProt Q9Y6L6); test: Competitive counterflow assay with ACE in OATP1B1 overexpressing HEK293 cells; format: cell-based; conditions: gilteritinib 0.1–20 μM, 5 μM ACE, normalized to ACE alone
# T1 construct: expressed in transfected cells; host or cells: HEK293
# T1 sequence (Q9Y6L6 1-691): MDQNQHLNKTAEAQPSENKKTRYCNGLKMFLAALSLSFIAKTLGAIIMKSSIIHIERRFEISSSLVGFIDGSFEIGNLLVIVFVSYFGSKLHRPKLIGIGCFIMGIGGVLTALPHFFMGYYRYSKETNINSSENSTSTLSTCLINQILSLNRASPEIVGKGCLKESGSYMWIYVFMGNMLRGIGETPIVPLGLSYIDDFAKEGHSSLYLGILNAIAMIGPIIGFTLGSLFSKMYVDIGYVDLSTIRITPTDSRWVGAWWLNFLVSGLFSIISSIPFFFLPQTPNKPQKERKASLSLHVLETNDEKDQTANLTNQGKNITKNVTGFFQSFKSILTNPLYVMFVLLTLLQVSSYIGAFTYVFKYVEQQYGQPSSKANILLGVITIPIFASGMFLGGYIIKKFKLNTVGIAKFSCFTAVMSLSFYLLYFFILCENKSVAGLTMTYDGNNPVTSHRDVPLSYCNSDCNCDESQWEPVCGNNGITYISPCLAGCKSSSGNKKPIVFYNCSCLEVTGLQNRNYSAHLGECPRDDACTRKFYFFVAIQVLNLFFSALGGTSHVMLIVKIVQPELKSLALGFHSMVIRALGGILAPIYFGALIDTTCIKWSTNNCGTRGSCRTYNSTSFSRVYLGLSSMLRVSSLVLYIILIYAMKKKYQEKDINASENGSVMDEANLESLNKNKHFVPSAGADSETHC
# Description: OATP1B1 overexpressing cells or vector control were seeded in 96-well plates in 200 μL DMEM and incubated for 24 h. The medium was aspirated off and the cells were washed three times with PBS at room temperature. The cells were then treated with 100 μL of 5 μM ACE and incubated at 37 °C for 15 min in uptake buffer. The supernatant was aspirated off and 100 μL of 5 μM ACE alone or in combination with DMSO or gilteritinib (0.1–20 μM) in uptake buffer were added to the cells. The plates were further incubated for 20 min at 37 °C. The supernatant was removed, and the cells were washed three times with 200 μL of ice-cold PBS. Lastly, 200 μL of 0.1 N NaOH was added to cells and incubated for 20 min at room temperature. Fluorescence was measured on a plate reader at excitation and emission wavelengths of 460 and 510 nm, respectively. The intracellular concentrations of ACE were calculated by comparison of fluorescence values observed with control samples incubated with ACE alone, which were set to 100%.
# [1] = human, in vivo; cited from earlier work
# OATP1B2 = target: T2, OATP1B2 (Mus musculus, UniProt Q9JJL3); test: Transport inhibition assay: 8-FcA uptake in OATP1B2 overexpressing HEK293 cells; format: cell-based; conditions: OATP1B2 overexpressing HEK293 cells vs vector control; fluorescent probe 8-FcA; read-out: IC50, inhibition of OATP1B2 function
# T2 construct: expressed in transfected cells; host or cells: HEK293
# T2 sequence (Q9JJL3 1-689): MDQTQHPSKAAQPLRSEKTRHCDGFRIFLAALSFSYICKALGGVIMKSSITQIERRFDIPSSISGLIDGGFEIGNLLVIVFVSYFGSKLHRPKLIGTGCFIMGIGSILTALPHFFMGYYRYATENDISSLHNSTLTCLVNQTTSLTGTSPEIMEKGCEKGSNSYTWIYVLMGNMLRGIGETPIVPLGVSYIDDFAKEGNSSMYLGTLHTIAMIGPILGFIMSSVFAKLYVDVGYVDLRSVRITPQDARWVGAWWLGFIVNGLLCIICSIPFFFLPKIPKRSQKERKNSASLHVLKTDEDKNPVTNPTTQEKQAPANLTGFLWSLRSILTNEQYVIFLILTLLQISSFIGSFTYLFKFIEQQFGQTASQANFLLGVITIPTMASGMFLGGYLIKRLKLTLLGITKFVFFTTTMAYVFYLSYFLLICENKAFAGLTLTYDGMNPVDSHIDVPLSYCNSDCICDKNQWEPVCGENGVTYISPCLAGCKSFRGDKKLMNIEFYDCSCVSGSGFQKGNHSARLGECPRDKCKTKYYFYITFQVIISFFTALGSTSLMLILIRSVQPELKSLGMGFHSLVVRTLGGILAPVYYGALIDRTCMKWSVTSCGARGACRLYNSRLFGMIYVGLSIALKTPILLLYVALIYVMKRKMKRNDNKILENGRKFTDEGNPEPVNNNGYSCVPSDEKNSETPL
# Description: Transport inhibition assays using 8-(2-[fluoresceinyl]-aminoethylthio)-adenosine-3′,5′-cyclic-monophosphate (8-FcA) were completed as previously described. OAT1B2 overexpressing cells and vector control cells were grown to confluency in a 96-well plate. Cells were washed, then incubated for 15 min with 100 μL phenol red-free DMEM containing gilteritinib or vehicle (DMSO). The media was removed, then cells were incubated with 45 μL media containing 25 μM 8-FcA for 30 min. The media was removed and cells were washed three times with ice cold PBS. Fluorescence was measured on a plate reader at excitation and emission wavelengths of 485 and 535 nm, respectively. Cells were lysed with 0.2% nitric acid at 4 °C overnight and a Pierce protein assay was used to normalize the data to total protein.
structure (smiles),measurement,setting,value
CCc1nc(C(N)=O)c(Nc2ccc(N3CCC(N4CCN(C)CC4)CC3)c(OC)c2)nc1NC1CCOCC1 [Gilteritinib],Effect on fluorescent signal of ACE in cells (competitive counterflow; transported substrate),OATP1B1,decreased the fluorescent signal in cells in a concentration-dependent manner
same,Increase in gilteritinib exposure when co-administered with itraconazole,[1],2.2 fold
same,IC50,OATP1B2,1.83 µM

# — article PMC9610999, “Itraconazole-Induced Increases in Gilteritinib Exposure Are Mediated by CYP3A and OATP1B” (Molecules, 2022)
